The text below walks through data of publication PMC6270921, “Study on the Cytotoxic Activity of Drimane Sesquiterpenes and Nordrimane Compounds against Cancer Cell Lines” (Molecules, 2014).

Series [1] has as its system MCF-7 cells. In words: Morphological changes, phase contrast microscope. Type of series: cell-based, human. The settings on record: MCF-7, 50 μM compound for 24 h. As for the experimental part:
(§1) First, the appearance of morphological changes in the cells treated with 50 μM compound for 24 h was analyzed.

For series [2], the system named is PC-3 cells. In words: Morphological changes, phase contrast microscope. The settings on record: PC-3, 50 μM compound for 24 h. Type of series: cell-based, human. As for the experimental part: as §1
Series [3] has as its system CoN cells. In words: Morphological changes, phase contrast microscope. Type of series: cell-based, human. The conditions noted are these: 50 μM compound for 24 h. As for the experimental part: as §1
The subject of series [4] is Salmonella strains TA 98, TA 2637, and TA 100. The settings on record: at highest non-toxic concentration; cited from earlier work.
Series [5] relates to MCF-7 cells. The series is described as follows: Morphological assessment of cell apoptosis, Hoechst 33342 staining. The format is cell-based, human. The settings on record: MCF-7, 24 h exposure, fluorescence microscope. As for the experimental part: (§2) Nuclear changes in PC-3, MCF-7 and CoN cells were observed under a fluorescence microscope (200×, Figure 4).
(§3) Briefly, on 24-well chamber slides, 1 × 10^4 cells/mL were cultured and exposed to compounds for 24 h. The control group was also exposed to 1% ethanol. The cells were washed twice with phosphate buffer solution, fixed with 3.7% formaldehyde, and washed again with phosphate buffer solution. Following the addition of 1 μM Hoechst 33342 (Sigma-Aldrich, Santiago, Chile), they were reacted in a dark room at room temperature for 30 min. After washing, they were examined under an immunofluorescence microscope (IX 81 model inverted microscope, Olympus, Santiago, Chile).

Series [6] has as its system PC-3 cells. The description is as above. Type of series: cell-based, human. The settings on record: PC-3, 24 h exposure, fluorescence microscope. As for the experimental part: as §2, §3
In series [7] the test system is CoN cells. The description is as above. The conditions noted are these: 24 h exposure, fluorescence microscope. The format is cell-based, human. As for the experimental part:
as §2, §3

Series [8] has as its system MCF-7 cells. The series is described as follows: Mitochondrial membrane permeability, rhodamine 123 flow cytometry. Type of series: cell-based, human. The settings on record: control treated cells assigned 100%. An excerpt: (§4) Mitochondria play a crucial role in the apoptotic cascade by serving as a convergent center of apoptotic signals originating from both the extrinsic and intrinsic pathways. Changes induced in the mitochondrial membrane potential (MMP) have been reported previously to represent a determinant in the execution of cell death. As polygodial has been described as an inhibitor of mitochondrial ATPase and also as nonionic surfactant. This effect may be determinant in cell death, we has analyzed the effect of compounds 1, 8 and 12 on the mitochondrial membrane potential using flow cytometry with rhodamine 123 stain [24]. […] Similar differences were observed after treatments with compounds 1 and 8 at 100 μM.
(§5) Rhodamine 123, a cationic, voltage-sensitive probe that reversibly accumulates in mitochondria, was used to detect changes in transmembrane mitochondrial membrane potentials. Cells were labelled with 1 μM rhodamine 123 at 37 °C in cell medium for 60 min before terminating the experiment. Cells were detached from the plate, after washing with ice cold PBS, and the samples were analyzed by flow cytometry. Data are expressed in percentage of cells with rhodamine 123 [24].
A general note: Flow cytometry measures light scatter and fluorescence of single cells or particles in a stream.

Series [9] relates to PC-3 cells. The series is described as above. The format is cell-based, human. The conditions noted are these: control treated cells assigned 100%.
From the text: as §4, §5

For series [10], the system named is CoN cells. The series is described as above. The format is cell-based, human. The settings on record: control treated cells assigned 100%.
From the text: as §4, §5

In a further series the test system is caspase-3 in MCF-7 cells. In words: Caspase 3 activity assay (colorimetric, DEVD-pNA). Type of series: cell-based, human. The conditions noted are these: MCF-7, compound 50 μM; control 1% ethanol. An excerpt: (§6) Depletion of mitochondrial membrane potential leads to the release of apoptogenic factors, such as cytochrome c in the apoptotic cascade, and activation of caspases. Then we investigated the effects of our compounds on caspase activity. We focused on caspase-3, which is a main executor of apoptosis playing a central role in its biological processing. We analyzed the effect of treatment with the compound 1, 8 and 12 on caspase-3 activation in normal and cancer cells. […] Compound 1 increased the activity of caspase-3 by 3.4 ± 0.1, 1.4 ± 0.1 and 2.8 ± 0.1 times versus control cells in MCF-7 (black), CoN (white) and PC-3 (gray) cells, respectively. Compound 8 increased the activity of caspase 3 by 2.4 ± 0.1, 1.3 ± 0.2 and 2.7 ± 0.1 times versus control cells in MCF-7 (black), CoN (white) and PC-3 (gray) cells, respectively.
(§7) Caspase activity was measured using a colorimetric assay. Briefly, the cells exposed to compounds were collected by centrifugation at 1000 rpm and lysed with lysis buffer (1% Triton X-100, 0.32 M sucrose, 5 mM EDTA, 10 mM Tris–HCl, pH 8.0, 2 mM dithiothreitol, 1 mM PMSF, […] aprotinin, 1 mg/mL leupeptin). Thereafter, the lysates were transferred to wells in a 96-well microplate and were incubated with DEVD-pNA (final concentration 200 μM) specific for caspase-3/7, at 37 °C for 1 h. The intensity of the developed color was read at 405 nm in a microplate reader (SpectraMax, Winooski, VT, USA). The results are expressed as percentages of the control level.

In a further series the test system is caspase-3 in CoN cells. The series is described as follows: Caspase 3 activity assay (colorimetric, DEVD-pNA). The format is cell-based, human. The settings on record: compound 50 μM, control 1% ethanol.
From the text: as §6, §7

In another series the test system is caspase-3 in PC-3 cells. The series is described as follows: Caspase 3 activity assay (colorimetric, DEVD-pNA). Type of series: cell-based, human. The conditions noted are these: PC-3, compound 50 μM; control 1% ethanol.
From the text: as §6, §7

Series [11] has as its system panel of cancer cell lines. The series is described as follows: Cytotoxicity against a panel of cancer cell lines (summary). The settings on record: Homo sapiens; summary statement of the conclusions. Type of series: cell-based. As for the experimental part:
The cytotoxicity of compounds 1–12 was evaluated in vitro against different cancer cell lines: MCF-7 breast cancer, DU-145 and PC-3 human prostate cancer, and one non-tumor cell line, human colon epithelial cells CCD 841 CoN (CoN). […] Four serial dilutions (from 12.5 to 100 μM) for each sample were evaluated in triplicate.
The sulforhodamine B assay was used according to the method of Skehan et al.. Briefly, the cells were set up at 3 × 10^3 cells per well of a 96 200 μL well, flat-bottomed, microplate. Cells were incubated at 37 °C in a humidified 5% CO2/95% air mixture and treated with the compounds at different concentrations for 72 h. At the end of drug exposure, cells were fixed with 50% trichloroacetic acid at 4 °C. After washing with water, cells were stained with 0.1% sulforhodamine B (Sigma-Aldrich, St. Louis, MO, USA), dissolved in 1% acetic acid (50 μL/well) for 30 min, and subsequently washed with 1% acetic acid to remove unbound stain. Protein-bound stain was solubilized with 100 μL of 10 mM unbuffered Tris base, and the cell density was determined using a […] plate reader (wavelength 540 nm). Values shown are the mean ± SD of three independent experiments in triplicate. The software used to calculate the IC50 values was GraphPad (GraphPad Software, San Diego, CA, USA).

The IC50 is the concentration that inhibits the measured activity by half. Read a high IC50 as a need for much substance.

Regarding `CC1(C)CCC[C@]2(C)[C@@H](C=O)C(C=O)=CC[C@@H]12` [Compound 1, polygodial], the “morphological changes of cells” value in the series on MCF-7 cells [1], with PC-3 cells [2] and with CoN cells [3] was “severely distorted” in each case. The mutagenic activity result in [4] is “no mutagenic activity”. Moreover, the “nuclear changes after Hoechst 33342 staining” value is “chromatin condensation and karyopyknosis” in the series with MCF-7 cells [5]; “chromatin condensation and karyopyknosis” in the series on PC-3 cells [6]; “chromatin condensation and karyopyknosis” in the series with CoN cells [7]. Also, the “percentage of rhodamine 123 stained cells” value with MCF-7 cells [8] (MCF-7, compound 50 µM) is 77.0% ± 6.5%; in the series on MCF-7 cells [8] (MCF-7, compound 50 µM, listed as Comp. 1) it was 77.0 ± 6.5 %; with MCF-7 cells [8] (MCF-7, compound 100 µM) it was 19.4 ± 1.5 %; with PC-3 cells [9] (PC-3, compound 50 µM), 49.1% ± 6.6%; in the series with PC-3 cells [9] (PC-3, compound 50 µM, listed as Comp. 1) it was 111.6 ± 8.9%; in the series on PC-3 cells [9] (PC-3, compound 100 µM), 11.9 ± 2.4 %. Besides, the “percentage of rhodamine 123 stained cells” value with CoN cells [10] (compound 50 µM) is 111.6% ± 8.9%; in the series on CoN cells [10] (compound 50 µM, listed as Comp. 1), 49.1 ± 6.6 %; in the series on CoN cells [10] (compound 100 µM), 11.8 ± 2.9 %. The “increase of caspase-3 activity” value was 3.4 ± 0.1 times versus control cells with caspase-3 in MCF-7 cells, 1.4 ± 0.1 times versus control cells in the series on caspase-3 in CoN cells and 2.8 ± 0.1 times versus control cells in the series with caspase-3 in PC-3 cells. The IC50 in series [11] was less than 200 µM.
